pIC50: −log10 of the molar value. In brackets after ≈: the same amount, converted by molar mass. Activity calls are given as the source filed them. The calls are words filed in the database; no cut-off is given here.
Key:
A498 [1] = assay: Antiproliferative activity against human A498 cells incubated for 48 hrs by XTT assay; type: functional, cell-based; conditions: A498, 48 h
[2] = Genotoxicity in Salmonella typhimurium TA98 upto 100 uM in absence of S9 fraction by Ames test; type: toxicity; conditions: salmonella enterica subsp. enterica serovar typhimurium, s9, 100 µM
A498 [3] = assay: Inhibition of CXCL5 secretion in human A498 cells at 1 to 2.5 uM incubated for 48 hrs by ELISA; type: functional, cell-based; conditions: dose 1-2.5 µM
A498 [4] = assay: Effect on VEGFA production in human A498 cells at 1 to 2.5 uM incubated for 48 hrs by ELISA; type: functional, cell-based; conditions: dose 1-2.5 µM
A498 [5] = assay: Downregulation of CXCL1 mRNA expression in human A498 cells at 1 to 2.5 uM incubated for 48 hrs by qPCR analysis; type: functional, cell-based; conditions: dose 1-2.5 µM
A498 [6] = assay: Downregulation of CXCL5 mRNA expression in human A498 cells at 1 to 2.5 uM incubated for 48 hrs by qPCR analysis; type: functional, cell-based; conditions: dose 1-2.5 µM
[7] = target: CDK8/Cyclin C (Homo sapiens) (UniProt P49336+P24863); assay: Inhibition of CDK8/cyclin C (unknown origin) at 10 uM in presence of ATP at Km concentration; type: protein-complex assay
[8] = target: Casein kinase I isoform gamma-3 (Homo sapiens) (UniProt Q9Y6M4); assay: Inhibition of CSNK1G3 (unknown origin) at 10 uM in presence of ATP at Km concentration
[9] = target: Ephrin type-A receptor 2 (Homo sapiens) (UniProt P29317); assay: Inhibition of EPHA2 (unknown origin) at 10 uM in presence of ATP at Km concentration
[10] = target: Tyrosine-protein kinase Fyn (Homo sapiens) (UniProt P06241); assay: Inhibition of FYN (unknown origin) at 10 uM in presence of ATP at Km concentration
[11] = target: Inhibitor of nuclear factor kappa-B kinase subunit beta (Homo sapiens) (UniProt O14920); assay: Inhibition of IKBKB (unknown origin) at 10 uM in presence of ATP at Km concentration
[12] = target: Insulin receptor (Homo sapiens) (UniProt P06213); assay: Inhibition of INSR (unknown origin) at 10 uM in presence of ATP at Km concentration
[13] = target: Mitogen-activated protein kinase kinase kinase kinase 3 (Homo sapiens) (UniProt Q8IVH8); assay: Inhibition of MAP4K3 (unknown origin) at 10 uM in presence of ATP at Km concentration
[14] = target: Mitogen-activated protein kinase kinase kinase kinase 5 (Homo sapiens) (UniProt Q9Y4K4); assay: Inhibition of MAP4K5 (unknown origin) at 10 uM in presence of ATP at Km concentration
[15] = target: Myosin-IIIb (Homo sapiens) (UniProt Q8WXR4); assay: Inhibition of MYO3B (unknown origin) at 10 uM in presence of ATP at Km concentration
[16] = target: Inactive tyrosine-protein kinase PEAK1 (Homo sapiens) (UniProt Q9H792); assay: Inhibition of PEAK1 (unknown origin) at 10 uM in presence of ATP at Km concentration
[17] = target: Serine/threonine-protein kinase N2 (Homo sapiens) (UniProt Q16513); assay: Inhibition of PKN2 (unknown origin) at 10 uM in presence of ATP at Km concentration
[18] = target: Protein kinase C eta type (Homo sapiens) (UniProt P24723); assay: Inhibition of PRKCH (unknown origin) at 10 uM in presence of ATP at Km concentration
[19] = target: Serine/threonine-protein kinase D2 (Homo sapiens) (UniProt Q9BZL6); assay: Inhibition of PRKD2 (unknown origin) at 10 uM in presence of ATP at Km concentration
[20] = target: cGMP-dependent protein kinase 1 (Homo sapiens) (UniProt Q13976); assay: Inhibition of PRKG1 (unknown origin) at 10 uM in presence of ATP at Km concentration
[21] = target: Ribosomal protein S6 kinase alpha-2 (Homo sapiens) (UniProt Q15349); assay: Inhibition of RPS6KA2 (unknown origin) at 10 uM in presence of ATP at Km concentration
[22] = target: Serine/threonine-protein kinase SIK3 (Homo sapiens) (UniProt Q9Y2K2); assay: Inhibition of SIK3 (unknown origin) at 10 uM in presence of ATP at Km concentration
[23] = target: Angiopoietin-1 receptor (Homo sapiens) (UniProt Q02763); assay: Inhibition of TEK (unknown origin) at 10 uM in presence of ATP at Km concentration
[24] = target: Serine/threonine-protein kinase tousled-like 2 (Homo sapiens) (UniProt Q86UE8); assay: Inhibition of TLK2 (unknown origin) at 10 uM in presence of ATP at Km concentration
[25] = target: Tyrosine-protein kinase Yes (Homo sapiens) (UniProt P07947); assay: Inhibition of YES1 (unknown origin) at 10 uM in presence of ATP at Km concentration
[26] = target: Mitogen-activated protein kinase kinase kinase 20 (Homo sapiens) (UniProt Q9NYL2); assay: Inhibition of ZAK (unknown origin) at 10 uM in presence of ATP at Km concentration
A498 [27] = assay: Antimetastatic activity against human A498 cells labeled with vybrant DiD cell-labeling solution xenografted in zebrafish embryo at 1 uM incubated for 72 hrs by fluorescence microscopic imaging analysis; type: functional, cell-based
[28] = Lipophilicity, logD of compound at pH 7.4; type: physicochemical; conditions: buffer
[29] = Aqueous solubility of compound in SGF at pH 2; type: ADME
[30] = Stability in mouse microsomes assessed as compound remaining measured after 1 hrs; type: ADME, Microsome; conditions: read-out: Stability
[31] = Stability in mouse microsomes assessed as intrinsic clearance; type: ADME, Microsome
[32] = Stability in human microsomes assessed as half-life; type: ADME, Microsome
[33] = Stability in mouse hepatocytes assessed as intrinsic clearance measured per 10^6 cells; type: ADME, cell-based, Hepatocyte; conditions: read-out: CLH
[34] = Volume of distribution in NOD SCID mouse at 1 mg/kg, iv; type: ADME, organism-based; conditions: in vivo
[35] = Cmax in NOD SCID mouse at 50 mg/kg, po; type: ADME, organism-based; conditions: in vivo
[36] = Tmax in NOD SCID mouse at 200 mg/kg, po; type: ADME, organism-based; conditions: in vivo
[37] = Half-life in NOD SCID mouse at 100 mg/kg, po; type: ADME, organism-based; conditions: in vivo
[38] = Half-life in NOD SCID mouse at 200 mg/kg, po; type: ADME, organism-based; conditions: in vivo
[39] = AUC (0 to infinity) in NOD SCID mouse at 50 mg/kg, po; type: ADME, organism-based; conditions: in vivo
[40] = Oral bioavailability in NOD SCID mouse at 50 mg/kg; type: ADME, organism-based; conditions: in vivo
[41] = Oral bioavailability in NOD SCID mouse at 100 mg/kg; type: ADME, organism-based; conditions: in vivo
[42] = Oral bioavailability in NOD SCID mouse at 200 mg/kg; type: ADME, organism-based; conditions: in vivo
[43] = Toxicity in athymic nude mouse xenografted with human 786-0 cells assessed as effect on food consumption at 100 mg/kg, po administered twice daily via gavage for 28 days; type: organism-based; conditions: in vivo, 672 h, time 28 day

Sequence of Insulin receptor (Homo sapiens) (P06213 28-758 limits assumed): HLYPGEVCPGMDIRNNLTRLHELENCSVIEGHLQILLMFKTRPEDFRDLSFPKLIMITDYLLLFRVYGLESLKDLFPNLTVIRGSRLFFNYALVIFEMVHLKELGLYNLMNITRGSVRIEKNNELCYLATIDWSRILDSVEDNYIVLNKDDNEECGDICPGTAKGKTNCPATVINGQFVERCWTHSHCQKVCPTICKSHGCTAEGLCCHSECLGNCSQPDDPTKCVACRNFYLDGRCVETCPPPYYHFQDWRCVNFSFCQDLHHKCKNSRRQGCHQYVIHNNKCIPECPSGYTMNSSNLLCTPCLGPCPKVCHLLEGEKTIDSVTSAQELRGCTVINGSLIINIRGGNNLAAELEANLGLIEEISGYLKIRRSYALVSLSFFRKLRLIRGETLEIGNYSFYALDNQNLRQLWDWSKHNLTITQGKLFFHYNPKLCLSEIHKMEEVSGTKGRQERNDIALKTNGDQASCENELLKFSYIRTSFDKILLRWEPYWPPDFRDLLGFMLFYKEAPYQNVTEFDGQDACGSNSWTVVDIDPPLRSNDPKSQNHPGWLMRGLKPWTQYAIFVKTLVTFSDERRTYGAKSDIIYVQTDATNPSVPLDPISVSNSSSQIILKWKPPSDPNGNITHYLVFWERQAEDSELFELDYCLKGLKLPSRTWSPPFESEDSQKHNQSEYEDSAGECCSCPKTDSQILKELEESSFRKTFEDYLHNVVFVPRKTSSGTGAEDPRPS
Sequence of Insulin receptor (Homo sapiens) (P06213 763-1382 limits assumed): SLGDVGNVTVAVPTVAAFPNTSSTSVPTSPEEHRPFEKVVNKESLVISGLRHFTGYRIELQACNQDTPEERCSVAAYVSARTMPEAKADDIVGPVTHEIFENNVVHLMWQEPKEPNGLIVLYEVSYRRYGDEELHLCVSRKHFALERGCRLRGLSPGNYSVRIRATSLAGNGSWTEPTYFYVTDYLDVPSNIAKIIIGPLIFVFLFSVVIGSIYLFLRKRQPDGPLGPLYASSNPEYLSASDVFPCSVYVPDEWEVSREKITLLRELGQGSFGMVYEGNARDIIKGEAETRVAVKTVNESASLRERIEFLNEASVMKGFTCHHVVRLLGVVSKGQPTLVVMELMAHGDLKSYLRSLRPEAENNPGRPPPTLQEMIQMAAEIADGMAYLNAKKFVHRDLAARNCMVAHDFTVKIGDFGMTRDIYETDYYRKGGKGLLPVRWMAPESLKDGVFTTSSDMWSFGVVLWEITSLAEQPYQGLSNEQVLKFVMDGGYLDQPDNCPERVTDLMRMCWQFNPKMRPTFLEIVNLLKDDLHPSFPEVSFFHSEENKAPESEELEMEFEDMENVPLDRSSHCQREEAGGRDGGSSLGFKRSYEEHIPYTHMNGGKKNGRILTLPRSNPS
Sequence of Serine/threonine-protein kinase SIK3 (Homo sapiens) (Q9Y2K2 whole entry, looked up): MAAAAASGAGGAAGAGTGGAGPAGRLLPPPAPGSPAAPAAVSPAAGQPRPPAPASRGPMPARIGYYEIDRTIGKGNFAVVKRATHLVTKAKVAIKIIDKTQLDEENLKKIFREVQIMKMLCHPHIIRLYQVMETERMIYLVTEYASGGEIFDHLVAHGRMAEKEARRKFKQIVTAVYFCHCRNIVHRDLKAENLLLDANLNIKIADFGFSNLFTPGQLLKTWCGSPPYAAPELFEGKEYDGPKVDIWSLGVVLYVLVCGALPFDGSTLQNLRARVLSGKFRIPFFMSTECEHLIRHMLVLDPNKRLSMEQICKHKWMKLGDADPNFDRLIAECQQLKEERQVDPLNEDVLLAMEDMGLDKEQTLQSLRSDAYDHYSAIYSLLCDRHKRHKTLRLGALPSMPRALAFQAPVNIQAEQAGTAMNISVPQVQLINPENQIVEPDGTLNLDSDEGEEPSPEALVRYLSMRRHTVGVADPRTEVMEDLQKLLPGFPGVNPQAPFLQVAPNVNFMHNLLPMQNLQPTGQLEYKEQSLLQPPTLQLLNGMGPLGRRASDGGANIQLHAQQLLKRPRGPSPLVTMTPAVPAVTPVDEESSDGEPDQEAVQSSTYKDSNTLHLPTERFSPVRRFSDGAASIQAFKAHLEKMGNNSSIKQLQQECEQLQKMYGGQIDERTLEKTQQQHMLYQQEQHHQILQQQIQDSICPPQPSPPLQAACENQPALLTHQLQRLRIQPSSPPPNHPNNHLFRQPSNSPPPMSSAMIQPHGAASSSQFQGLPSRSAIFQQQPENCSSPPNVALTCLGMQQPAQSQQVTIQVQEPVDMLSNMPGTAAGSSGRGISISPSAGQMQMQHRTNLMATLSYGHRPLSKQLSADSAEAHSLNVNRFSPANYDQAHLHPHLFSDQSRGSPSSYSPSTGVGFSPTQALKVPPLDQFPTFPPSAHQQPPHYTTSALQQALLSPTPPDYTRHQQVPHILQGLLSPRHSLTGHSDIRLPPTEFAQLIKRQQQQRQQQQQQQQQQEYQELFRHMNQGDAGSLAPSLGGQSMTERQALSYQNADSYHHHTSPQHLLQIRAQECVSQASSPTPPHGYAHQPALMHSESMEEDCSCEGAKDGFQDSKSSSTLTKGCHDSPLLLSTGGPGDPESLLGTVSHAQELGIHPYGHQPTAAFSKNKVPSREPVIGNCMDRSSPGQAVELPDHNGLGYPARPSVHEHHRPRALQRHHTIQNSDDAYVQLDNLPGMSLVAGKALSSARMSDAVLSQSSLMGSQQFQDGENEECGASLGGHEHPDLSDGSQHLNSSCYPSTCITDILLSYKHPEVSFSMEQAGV
Sequence of Ribosomal protein S6 kinase alpha-2 (Homo sapiens) (Q15349 whole entry): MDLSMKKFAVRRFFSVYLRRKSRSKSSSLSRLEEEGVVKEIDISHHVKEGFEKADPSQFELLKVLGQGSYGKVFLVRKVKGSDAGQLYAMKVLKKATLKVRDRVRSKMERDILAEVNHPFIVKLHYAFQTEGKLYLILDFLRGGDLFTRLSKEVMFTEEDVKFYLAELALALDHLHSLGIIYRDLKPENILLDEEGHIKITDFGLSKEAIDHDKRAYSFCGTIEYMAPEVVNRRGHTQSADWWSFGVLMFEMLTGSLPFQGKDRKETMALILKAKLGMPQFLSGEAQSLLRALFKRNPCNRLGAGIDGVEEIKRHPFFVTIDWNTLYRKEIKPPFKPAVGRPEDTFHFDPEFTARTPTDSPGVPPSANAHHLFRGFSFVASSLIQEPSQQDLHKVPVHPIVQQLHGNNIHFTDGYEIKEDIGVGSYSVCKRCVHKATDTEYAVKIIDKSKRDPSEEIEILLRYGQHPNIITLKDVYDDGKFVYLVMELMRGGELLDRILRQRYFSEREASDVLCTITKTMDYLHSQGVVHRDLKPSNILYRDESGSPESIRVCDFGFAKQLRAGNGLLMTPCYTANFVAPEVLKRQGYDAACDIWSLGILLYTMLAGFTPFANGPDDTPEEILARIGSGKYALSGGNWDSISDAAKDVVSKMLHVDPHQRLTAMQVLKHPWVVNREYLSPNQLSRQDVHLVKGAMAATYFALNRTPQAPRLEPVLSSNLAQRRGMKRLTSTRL
Sequence of Ephrin type-A receptor 2 (Homo sapiens) (P29317 whole entry): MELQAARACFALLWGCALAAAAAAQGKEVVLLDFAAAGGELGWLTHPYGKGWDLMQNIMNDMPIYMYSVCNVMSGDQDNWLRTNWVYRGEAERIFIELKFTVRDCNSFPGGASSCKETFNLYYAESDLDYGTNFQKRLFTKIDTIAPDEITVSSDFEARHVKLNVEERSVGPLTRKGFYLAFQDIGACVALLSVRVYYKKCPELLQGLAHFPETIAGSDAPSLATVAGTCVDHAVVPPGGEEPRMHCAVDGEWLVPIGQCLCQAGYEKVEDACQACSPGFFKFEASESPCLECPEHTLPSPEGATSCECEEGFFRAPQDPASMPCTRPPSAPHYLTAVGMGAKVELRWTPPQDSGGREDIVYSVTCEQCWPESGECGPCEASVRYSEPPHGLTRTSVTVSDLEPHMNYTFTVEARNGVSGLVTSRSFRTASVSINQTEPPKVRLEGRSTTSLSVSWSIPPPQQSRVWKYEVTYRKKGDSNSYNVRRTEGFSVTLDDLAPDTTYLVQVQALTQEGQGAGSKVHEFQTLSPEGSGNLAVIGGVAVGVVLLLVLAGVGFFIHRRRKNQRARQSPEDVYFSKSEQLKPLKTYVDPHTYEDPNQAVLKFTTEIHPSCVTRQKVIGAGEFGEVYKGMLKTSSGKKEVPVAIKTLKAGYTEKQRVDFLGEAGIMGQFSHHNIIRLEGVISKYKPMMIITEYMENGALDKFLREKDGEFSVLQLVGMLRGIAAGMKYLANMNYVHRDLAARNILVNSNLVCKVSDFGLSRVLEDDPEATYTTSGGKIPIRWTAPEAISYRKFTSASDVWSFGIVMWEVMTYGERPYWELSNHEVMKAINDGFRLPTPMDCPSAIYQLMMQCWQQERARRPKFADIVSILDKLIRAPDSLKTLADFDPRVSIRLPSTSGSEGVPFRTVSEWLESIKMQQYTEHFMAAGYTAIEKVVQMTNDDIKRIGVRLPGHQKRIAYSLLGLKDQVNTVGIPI
Sequence of Protein kinase C eta type (Homo sapiens) (P24723 whole entry): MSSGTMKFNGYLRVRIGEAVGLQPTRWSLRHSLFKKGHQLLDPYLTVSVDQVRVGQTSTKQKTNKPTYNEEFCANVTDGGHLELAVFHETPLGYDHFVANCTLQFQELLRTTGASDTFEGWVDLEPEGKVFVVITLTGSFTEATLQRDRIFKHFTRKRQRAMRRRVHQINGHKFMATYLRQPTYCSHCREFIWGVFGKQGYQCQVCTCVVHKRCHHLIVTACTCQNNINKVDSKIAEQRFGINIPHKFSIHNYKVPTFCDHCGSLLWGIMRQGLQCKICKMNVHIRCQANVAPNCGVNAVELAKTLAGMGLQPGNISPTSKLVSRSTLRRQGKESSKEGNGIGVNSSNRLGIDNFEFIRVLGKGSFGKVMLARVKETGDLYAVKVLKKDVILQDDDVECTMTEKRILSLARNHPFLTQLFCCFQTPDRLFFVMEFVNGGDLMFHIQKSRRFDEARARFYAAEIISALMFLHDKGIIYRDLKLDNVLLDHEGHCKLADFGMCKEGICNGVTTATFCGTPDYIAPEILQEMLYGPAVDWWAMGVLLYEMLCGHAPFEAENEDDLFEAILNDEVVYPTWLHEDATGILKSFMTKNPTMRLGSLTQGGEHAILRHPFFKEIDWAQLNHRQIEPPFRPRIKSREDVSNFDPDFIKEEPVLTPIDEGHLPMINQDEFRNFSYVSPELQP

inhibition [7]: inactive | inhibition [8]: inactive | inhibition [9]: inactive | inhibition [10]: inactive | inhibition [11]: inactive | inhibition [12]: inactive | inhibition [13]: inactive | inhibition [14]: inactive | inhibition [15]: inactive | inhibition [16]: inactive | inhibition [17]: inactive | inhibition [18]: inactive | inhibition [19]: inactive | inhibition [20]: inactive | inhibition [21]: inactive | inhibition [22]: inactive | inhibition [23]: inactive | inhibition [24]: inactive | inhibition [25]: inactive | inhibition [26]: inactive | logD [28]: 2.86 | solubility [29]: 3.4 µM (≈ 1.3 µg/mL) | remaining at 1 h [30]: 76% | microsomal CLint [31]: < 116 µL/min/mg | half-life [32]: > 60 min | hepatocyte CLint [33]: 65.8 µL/min/1e6 cells | Vd [34]: 1 L/kg | Cmax [35]: 2000 nM | Tmax [36]: 1 h | half-life [37]: 132 min | half-life [38]: 162 min | AUC(0-inf) [39]: 8390 ng·h/mL | bioavailability [40]: 39% | bioavailability [41]: 33% | bioavailability [42]: 22%
Structure (SMILES): O=C(Nc1cc(Cl)cc(Cl)c1)Nc1nc2ccc([N+](=O)[O-])cc2s1
pIC50 (A498 [1]): 5.70 | Activity [2]: Non-Toxic | inhibition (A498 [3]): Active | Activity (A498 [4]): inactive | Activity (A498 [5]): Active | Activity (A498 [6]): Active | Activity (A498 [27]): Active | Activity [43]: Non-Toxic
